{
  "source": "patent EP0831877B1",
  "about": "“METABOLIC EFFECTS OF CERTAIN GLUTATHIONE ANALOGS” (TELIK, INC., priority 1995, dated 1996)",
  "key": {"bone marrow GM-CFU [1]": {"system": "bone marrow GM-CFU", "experiment": "5-fluorouracil-induced GM-CFU suppression in mice", "method": "The control group was not treated with either drug. Bone marrows were harvested and GM-CFUs were determined 24 hours after the final injection.\nValues are the mean ± SE of three mice per point."}, "Human GST P1-1": {"target": "Human GST P1-1 (Homo sapiens, UniProt P09211)", "sequence (P09211 2-210 limits assumed)": "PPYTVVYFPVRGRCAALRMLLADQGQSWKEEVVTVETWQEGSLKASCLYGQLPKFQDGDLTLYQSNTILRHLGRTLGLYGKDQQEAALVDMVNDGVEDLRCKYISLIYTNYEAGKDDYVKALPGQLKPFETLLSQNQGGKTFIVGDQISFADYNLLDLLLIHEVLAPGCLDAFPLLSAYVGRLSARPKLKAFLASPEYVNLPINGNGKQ", "experiment": "inhibition of GST isoenzyme P1-1 (Ki)", "type": "biochemical", "conditions": "for Rank order: rank of Ki for Human GST P1-1"}, "[2]": {"system": "HT-29 (human colon adenocarcinoma) cells", "experiment": "modified clonogenic assay, potentiation of chlorambucil cytotoxicity", "type": "cell-based", "conditions": "chlorambucil, mean ±S.D. of 2-3 experiments; for DMF (dose modification factor), Parent Compound: dose tested 100 µM", "procedure": "HT-29 (human colon adenocarcinoma) cells were obtained from Dr. Roberto Ceriani (Cancer Research Fund of Contra Costa County, Walnut Creek, CA) and were used in log phase of growth unless otherwise specified. Chlorambucil (CMB) was obtained from Sigma (St. Louis, MO) and was dissolved in 100% ethanol. All GST inhibitors were dissolved in ethanol, DMSO, or water just prior to use. The same amount of solvent added to culture medium served as the vehicle control.\nIn a modified clonogenic assay for cytotoxicity, cells were suspended at 2 x 10^5 cells/ml in serum-free medium in the presence of vehicle or inhibitor. […] Cells were incubated for 2 hours, then varying doses of CMB were added. At the end of a second 2-hour incubation, cells were diluted to 7.5-10 x 10^3/ml in serum-containing medium and plated in quadruplicate at 200 µl/well in Microtest III microtiter plates.\nPlates were incubated for 6 days and assayed by a modified methylene blue method. Briefly, cells were fixed with 1.25% glutaraldehyde in PBS then stained with 0.05% methylene blue in distilled water. Plates were washed several times in distilled water to remove unretained dye and retained dye was resolubilized in 0.03 N HCl. Plates were read at 650 nm in a Molecular Devices Vmax plate reader (Molecular Devices, Redwood City, CA). […] A dose modification factor (DMF), a measure of potentiation of cytotoxicity, was calculated for each inhibitor by dividing the IC50 value of CMB without inhibitor treatment by the IC50 value for CMB with inhibitor treatment."}, "bone marrow GM-CFU [3]": {"system": "bone marrow GM-CFU", "experiment": "stimulation of bone marrow GM-CFU after administration to mice", "type": "in vivo, B6D2F1 mice", "conditions": "bone marrow harvested 24 hours after administering", "procedure": "In an illustrative assay three B6D2F1 mice were treated with various doses of benzyl PG intraperitoneally.\nMice in the control group were injected with water or saline. Bone marrow cells were harvested 24 hours after drug treatment and added to alpha minimum essential medium (alpha MEM) supplemented with methylcellulose (0.8% w/v), fetal bovine serum (20% v/v), deionized BSA (1% w/v), Pokeweed mitogen-stimulated spleen-cell conditioned medium (PWM-SCCM)^1 (10% v/v) and gentamycin (50 Tg/ml). One ml aliquots were plated (four replicate plates) and incubated for seven days at 37 °C. […] Spleens were removed aseptically from four male B6D2F1 mice enforced through a 200 Tm wire mesh screen to obtain a single cell suspension. Ten ml of the suspension (2-4 X 10^7 cell/ml was added to 90 ml alpha-MEM supplemented with 1% deionized BSA, 50 Tg/ml gentamicin, 0.3% freshly reconstituted pokeweed antigen, 10 µM 2-mercaptoethanol. The mixture was incubated for 5 days at […] in a 5% CO2 atmosphere and the result-ing conditioned medium was centrifuged at 800g for ten minutes and filtered through a 0.22 Tm filter. Aliquots were kept frozen at […] until use.\nBone marrow was harvested 24 hours after administering the compounds and GM-CFU levels measured as described above."}, "GST M2-2": {"target": "T1, GST M2-2 (Homo sapiens, UniProt P28161)", "T1 sequence (P28161 1-218)": "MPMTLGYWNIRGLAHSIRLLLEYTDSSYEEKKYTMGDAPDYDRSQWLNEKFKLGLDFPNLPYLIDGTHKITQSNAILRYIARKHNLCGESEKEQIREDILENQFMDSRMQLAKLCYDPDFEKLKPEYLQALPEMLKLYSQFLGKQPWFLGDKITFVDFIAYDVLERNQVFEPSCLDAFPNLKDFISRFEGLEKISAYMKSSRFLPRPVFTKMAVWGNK", "experiment": "inhibition of GST isoenzyme M2-2 (Ki)", "type": "biochemical", "conditions": "determined on unesterified form"}, "[4]": {"system": "HT4-1, a subclone of HT-29", "experiment": "standard clonogenic assay, potentiation of drug toxicity, HT4-1", "method": "Four chemotherapeutic drugs, chlorambucil, adriamycin, mitomycin C and doxorubicin were used as the toxic agents. In these assays, the cells were seeded at 300 cells/well in 2 ml of medium in 6-well plates in the presence of the compounds used in the invention as the diethyl esters. […] After incubation for 1-2 hours to permit cells to attach, varying doses of the chemotherapeutic agents were added. At least three replicate wells were plated for each test condition and the plates were incubated for two weeks. […] IC50 values were determined for the chemotherapeutic agent in the presence or absence of the compound used in the invention and dose modification factors were calculated by dividing the IC50 value of drug without the compound by the IC50 value of the drug with the compound."}, "GST M1a-1a": {"target": "T2, GST M1a-1a (Homo sapiens, UniProt P09488)", "T2 sequence (P09488 1-218)": "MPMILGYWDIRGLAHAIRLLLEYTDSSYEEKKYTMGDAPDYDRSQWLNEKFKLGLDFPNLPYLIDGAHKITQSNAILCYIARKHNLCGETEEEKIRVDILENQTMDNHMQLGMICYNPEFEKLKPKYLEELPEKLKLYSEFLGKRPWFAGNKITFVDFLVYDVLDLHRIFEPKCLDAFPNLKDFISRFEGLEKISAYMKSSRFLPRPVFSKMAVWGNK", "experiment": "inhibition of GST isoenzyme M1a-1a (Ki)", "type": "biochemical"}, "GST A1-1": {"target": "T3, GST A1-1 (Homo sapiens, UniProt P08263)", "T3 sequence (P08263 1-222)": "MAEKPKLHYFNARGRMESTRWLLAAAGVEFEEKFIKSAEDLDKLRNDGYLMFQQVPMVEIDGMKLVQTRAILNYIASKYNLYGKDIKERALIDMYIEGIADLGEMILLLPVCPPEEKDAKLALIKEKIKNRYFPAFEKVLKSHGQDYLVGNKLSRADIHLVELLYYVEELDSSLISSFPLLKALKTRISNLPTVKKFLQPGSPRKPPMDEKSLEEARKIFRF", "experiment": "inhibition of GST isoenzyme A1-1 (Ki)", "type": "biochemical"}, "[5]": {"system": "VLB, a vinblastine-resistant variant of SKOV-3", "experiment": "standard clonogenic assay, potentiation of drug toxicity, VLB", "type": "cell-based", "procedure": "(§1) ; SKOV-3 an ovarian carcinoma, and VLB, a vinblastine-resistant variant of SKOV-3. Four chemotherapeutic drugs, chlorambucil, adriamycin, mitomycin C and doxorubicin were used as the toxic agents. In these assays, the cells were seeded at 300 cells/well in 2 ml of medium in 6-well plates in the presence of the compounds used in the invention as the diethyl esters. […]. After incubation for 1-2 hours to permit cells to attach, varying doses of the chemotherapeutic agents were added. At least three replicate wells were plated for each test condition and the plates were incubated for two weeks. Colonies were fixed in 95% ethanol and stained with crystal violet for colony counting. IC50 values were determined for the chemotherapeutic agent in the presence or absence of the compound used in the invention and dose modification factors were calculated by dividing the IC50 value of drug without the compound by the IC50 value of the drug with the compound."}, "[6]": {"system": "SKOV-3 an ovarian carcinoma", "experiment": "standard clonogenic assay, potentiation of drug toxicity, SKOV-3", "type": "cell-based", "procedure": "as §1"}, "[7]": {"conditions": "determined on unesterified form"}, "[8]": {"conditions": "HT4-1, TER199 at 25 µM, TER183 dose not given"}},
  "note": "“And” between values parts separate entries of the source, which are not always exact repeats. Identical values can stand only once. Like-named read-outs stand apart in the source and are kept apart here. Marks after values point to notes of the source that are not given here. *1 amine or outer side, *2 acyl side, *3 side chain or, on linkers, in order; H or OH if unused. Where a SMILES comes first, the peptide text is derived from it. [ ]: non-standard residue; d: D form. The star is where a group is joined. γGlu = O=C(O)[C@H](CCC(=O)[*:2])N[*:1]; dPhg = N[C@@H](C(=O)O)c1ccccc1; Bn = c1ccc(C*)cc1",
  "data": [
    {"smiles": "O=c1[nH]cc(F)c(=O)[nH]1", "note": "[5-FU, 5-fluorouracil, reference compound]", "values": [
      {"measurement": "GM-CFU", "setting": "bone marrow GM-CFU [1]; 75 mg/kg 5-FU IP alone", "value": "15 % of control"},
      {"measurement": "GM-CFU", "setting": "bone marrow GM-CFU [1]; 5-FU 75 mg/kg i.p. alone, harvest 48 hours", "value": "47 % of control"},
      {"measurement": "GM-CFU", "setting": "bone marrow GM-CFU [1]; 5-FU 150 mg/kg i.p. alone, harvest 48 hours", "value": "8 % of control"},
      {"measurement": "GM-CFU by day 4 after 5-FU administration (Figure 9b)", "setting": "bone marrow GM-CFU [1]; 5-FU only", "value": "approximately equal to control"}
    ]},
    {"smiles": "CCCCCCSC[C@H](NC(=O)CC[C@H](N)C(=O)O)C(=O)N[C@@H](C(=O)O)c1ccccc1", "note": "[TER102, γE-C(hexyl)-ϕG]", "values": [
      {"measurement": "specificity for GST P1-1", "setting": "Human GST P1-1; among TER117, TER102, TER211, TER143", "value": "reasonably specific"},
      {"measurement": "Rank order", "setting": "Human GST P1-1", "value": 2},
      {"measurement": "DMF (dose modification factor), Parent Compound", "setting": "[2]; HT-29", "value": "1.1±0.02"}
    ]},
    {"smiles": "N[C@@H](CCC(=O)N[C@@H](CSCc1ccccc1)C(=O)N[C@@H](C(=O)O)c1ccccc1)C(=O)O", "note": "[TER117, γE-C(Bz)-ϕG] (γGlu-Cys(Bn)-[dPhg]-OH)", "values": [
      {"measurement": "Ki", "setting": "Human GST P1-1; [7]", "value": 0.4, "unit": "µM"},
      {"measurement": "effect on GM-CFU as a function of dosage, ester/amide forms (Figure 7)", "setting": "bone marrow GM-CFU [3]", "value": "not effective"},
      {"measurement": "Ki", "setting": "GST M2-2", "value": 31, "unit": "µM"},
      {"measurement": "survival of HT4-1 cells in the presence of the compound alone (Figure 1b)", "setting": "[4]; HT4-1 cells", "value": "substantially no effect"},
      {"measurement": "DMF (dose modification factor), Parent Compound", "setting": "[2]; HT-29", "value": "1.08 and 1.08±0.01"},
      {"measurement": "Ki", "setting": "GST M1a-1a; [7]", "value": 25, "unit": "µM"},
      {"measurement": "Ki", "setting": "GST A1-1; [7]", "value": 20, "unit": "µM"}
    ]},
    {"smiles": "CCCCCCCCSC[C@H](NC(=O)CC[C@H](N)C(=O)O)C(=O)NCC(=O)O", "note": "[TER143, γE-C(octyl)-G]", "values": [
      {"measurement": "Rank order", "setting": "Human GST P1-1", "value": 4}
    ]},
    {"smiles": "CCCCCCCCSC[C@H](NC(=O)CC[C@H](N)C(=O)OCC)C(=O)NCC(=O)OCC", "note": "[TER143, γE-C(octyl)-G]", "values": [
      {"measurement": "Ki", "setting": "Human GST P1-1", "value": 1.9, "unit": "µM"},
      {"measurement": "Ki", "setting": "GST M1a-1a", "value": 1.2, "unit": "µM"},
      {"measurement": "Ki", "setting": "GST A1-1", "value": 0.27, "unit": "µM"}
    ]},
    {"smiles": "CCCCCCCCSC[C@H](NC(=O)CC[C@H](N)C(=O)OCC)C(=O)NCC(=O)OCC", "note": "[TER183, γE-C(octyl)-G diethyl ester]", "values": [
      {"measurement": "DMF for Adriamycin", "setting": "[4]; [8]", "value": 1.13},
      {"measurement": "DMF for Chlorambucil", "setting": "[4]; [8]", "value": 1.74},
      {"measurement": "DMF for Mitomycin C", "setting": "[4]; [8]", "value": 1.56},
      {"measurement": "DMF for Adriamycin", "setting": "[5]; TER199 at 25 µM, TER183 dose not given", "value": 1.06},
      {"measurement": "DMF for Mitomycin C", "setting": "[5]; test dose not given", "value": 1.63},
      {"measurement": "DMF (dose modification factor), Diethyl ester", "setting": "[2]; HT-29, dose tested 5 µM", "value": "0.86±0.02"},
      {"measurement": "DMF of DEE", "setting": "[2]; diethyl ester", "value": 0.864},
      {"measurement": "DMF for Adriamycin", "setting": "[6]; analog @5 uM", "value": "1.24 (@5 uM)^c"},
      {"measurement": "DMF for Chlorambucil", "setting": "[6]; test dose not given", "value": 1.03}
    ]}
  ]
}
